Patent publication US10695355B2, “Methods for pharmacologic treatment of stroke” (University of Connecticut, priority 2017, dated 2020)

What was measured:
[1] = tested on: Middle Cerebral Artery occlusion (MCAo) model, male C57B/6 mice; assay: Rotarod test (sensorimotor deficit) after MCAo stroke; type: in vivo; conditions: 0.5 mg/kg p.o./day for 3 days, first dose 4 hour after stroke; reperfusion 30 days, measured weekly; drug vs vehicle
From the text: (§1) Sensory motor deficit test: We used the open field test (OFT) and rotarod test to measure spontaneous locomotor activity/anxiety-like behavior and motor balance coordination, respectively, at baseline and post-mcao days 2, 7, 14, 21, and 28. As the OFT is a non-stressful test, we performed the OFT prior to the rotarod test, on the same day with one hour difference between tests.
Rotarod test: The rotarod test examines motor coordination in mice. We placed mice on a rotating cylindrical rod accelerating from two to ten rotations per minute, over a span of five minutes. Each subject performed two trials with a 20-minute break between the two trials. We recorded the latency to fall from the rotating rod for each trial (in seconds), and used the mean latency for comparison between groups.
Male C57B/6 (2-3 month old; 22-28 g) mice were used in a Middle Cerebral Artery occlusion (MCAo) model. The ischemia duration was 60 mins and the reperfusion was 30 days. The drug was 5-BDBD- (0.5 mg/kg p.o./day in 1% DMSO and 0.5% methyl cellulose suspension) administered for 3 days. The first dose was given at 4 hour after stroke. Vehicle was 1% DMSO in 0.5% methyl cellulose (n=5 Behaviors were measured weekly using methods described above. (n=7).

[2] = tested on: Middle Cerebral Artery occlusion (MCAo) model, male C57B/6 mice; assay: Open field test (exploratory activity, anxiety-like behavior) after MCAo stroke; type: in vivo; conditions: first dose 4 hour after stroke, reperfusion 30 days
From the text: as §1
Open field test: The OFT is a common measure of exploratory behavior and general activity in rodents, which can be used both qualitatively and quantitatively. Briefly, we placed mice in a corner of a clear acrylic box (16″×16″) and allowed them to explore the box for ten minutes. We quantified locomotor activity as the total number of beam breaks by a computer-operated, open-field photobeam activity system (San Diego Instruments, San Diego, Calif.). We calculated the percentage of beam breaks in the center zone (16/3″×16/3″) compared to the total as a measure of anxiety-like behavior. Importantly, OFT tests can be administered at several time points to view trends without hindrance by habituation.
Male C57B/6 (2-3 month old; 22-28 g) mice were used in a Middle Cerebral Artery occlusion (MCAo) model. The ischemia duration was 60 mins and the reperfusion was 30 days. […] Vehicle was 1% DMSO in 0.5% methyl cellulose (n=5 Behaviors were measured weekly using methods described above. (n=7).

[3] = tested on: Middle Cerebral Artery occlusion (MCAo) model, male C57B/6 mice; assay: Infarct volume after middle cerebral artery occlusion (MCAo) stroke; type: in vivo; conditions: 60 min ischemia, 72 h reperfusion, vs vehicle
From the text: (§2) Middle cerebral artery occlusion and bilateral ovariectomy: We induced focal transient cerebral ischemia by a 60-minute right middle cerebral artery occlusion (MCAo) under isoflurane anesthesia followed by reperfusion for either 3, 15, or 30 days. […] The 15- and 30-day time points represent sub-acute and chronic recovery as discussed in the art. Briefly, we performed a midline ventral neck incision and unilateral right MCAo by advancing a 6.0 silicone rubber-coated monofilament (Doccol Corporation, CA) 10-11 mm from the internal carotid artery bifurcation via an external carotid artery stump. We monitored rectal temperatures with a temperature control system (Fine Science Tools, Canada), maintaining the temperature at approximately 37° C. during surgery with an automatic heating pad. We used laser doppler flowmetry (DRT 4/Moor Instruments Ltd, Devon, UK) to measure cerebral blood flow and to confirm occlusion (reduction to 15% of baseline cerebral blood flow) and reperfusion. All animals were fed with wet mash for one week after surgery to ensure adequate nutrition for chronic endpoints, as animals have rearing deficits after stroke. In sham mice, we performed identical surgeries except the suture was not advanced into the internal carotid artery. For the gonadal hormone-mediated outcome study, we ovariectomized (ovxed) female mice two weeks prior to stroke surgery.
Cresyl violet staining for infarct volume and tissue atrophy analysis: We measured tissue infarct (day 3) or tissue atrophy (day 30) after stroke as described in the art. Briefly, we sacrificed the mice after stroke surgery with an overdose of Avertin (250 mg/kg intraperitoneally, i.p). After blood collection by cardiac puncture, we performed trans-cardiac perfusion on the mice using cold phosphate buffered saline (PBS) followed by 4% paraformaldehyde. Brains were then fixed overnight and placed in cryoprotectant (30% sucrose in PBS) for 72 hours before processing. We then sliced the brains into 30-μm free-floating sections using a freezing microtome; every eighth slice was mounted and stained with cresyl violet. […]

[4] = tested on: Middle Cerebral Artery occlusion (MCAo) model, male C57B/6 mice; assay: Neurological deficit (ND) score after MCAo stroke; type: in vivo
From the text: as §2
Neurological deficit score: The neurological deficit (ND) score is a crude assessment of post-stroke behavioral recovery. We recorded ND scores, ranging from 0 to 4, at several time points after stroke. Our standard scoring system was as follows: 0, no deficit; 1, forelimb weakness and torso turning to the ipsilateral side when held by the tail; 2, circling to affected side; 3, unable to bear weight on affected side; and 4, no spontaneous locomotor activity or barrel rolling.
Male C57B/6 (2-3 month old; 22-28 g) mice were used in this experiment. The ischemia duration was 60 minutes, with reperfusion for 72 hours. […]

[5] = Solubility in water/PBS; type: physicochemical
[6] = 0.5 mg/kg p.o./day for 3 days, first dose 4 hour after stroke, cresyl violet

With `O=C1CN=C(c2cccc(Br)c2)c2oc3ccccc3c2N1` [5-BDBD, 5-(3-Bromophenyl)-1,3-dihydro-2H-Benzofuro[3,2-e]-1,4-diazepin-2-one] as the molecule, how does the “rotarod test (test for sensorimotor deficit)” value [1] read?
Its value is “overall significant difference”.

And the “post stroke anxiety (% C/P = % time spent in center/time spent in periphery)” value ([2]; 0.5 mg/kg p.o./day for 3 days (acute treatment))?
Its value is “reduces post stroke anxiety up to a month”.

What about the total exploratory activity ([2]; 0.5 mg/kg p.o./day for 3 days, drug vs vehicle) of the same molecule?
Its total exploratory activity is “similar”.

And the cortical infarct volume [3, 6]?
Its cortical infarct volume is “reduces”.

What about the hemispheric infarct volume [3, 6] of the same molecule?
The hemispheric infarct volume was “reduces”.

What about the “Neurological deficit score measured after 3 days of stroke” value ([4]; 0.5 mg/kg p.o./day for 3 days, first dose 4 hour after stroke, 60 min ischemia, vs vehicle) of the same molecule?
Its value is “reduces”.

What about the “neurological deficit (ND) score” value ([4]; oral 0.5 mg/kg daily for 5 days beginning on the day of stroke, MCAo 60 minute followed by reperfusion) of the same molecule?
The value was “improved significantly”.

Which solubility [5] does the source give for `O=C1CC(=O)N(c2cccc(-c3noc(=S)[nH]3)c2)c2ccc3ccccc3c2N1` [NP-1815-PX, 5-[3-(5-thioxo-4H-[1,2,4]oxadiazol-3-yl)phenyl]-1H-naphtho[1,2-b][1,4]diazepine-2,4(3H,5H)-dione] here?
The solubility was “Water/PBS Soluble”.

And the stroke infarct size ([3]; 0.5-5 mg/kg in 1xPBS via Alzet mini osmotic pump (SC) for 3 days, TTC)?
The stroke infarct size was “could reduce”.

What about the ND score ([4]; 0.5-5 mg/kg in 1xPBS via Alzet mini osmotic pump (SC) for 3 days, after 3 days of stroke, vs vehicle) of the same molecule?
Its ND score is “improve”.
